The values that follow come from patent US20240369544A1, “MULTIVALENT GLYCAN SCAFFOLDS AND METHODS OF USE THEREOF” (NovAb, Inc., priority 2021, published 2024).

Experiment [1] relates to Vicia Villosa lectin (VVL). Description: Lectin assay of dendrimers on magnetic beads, VVL. The conditions noted are these: dendrimers coupled to streptavidin magnetic beads; lectin at 2 μg/mL pre-complexed with Avidin-HRP. The format is binding. The method, then: (§1) The Avidin-HRP was purchased from SouthemBiotech. […] 3 μL of dendrimer beads were used per assay.
Experiment [2] has as its target T1, Peanut agglutinin lectin (PNA) (Arachis hypogaea, UniProt P02872).
T1 sequence (P02872 whole entry, looked up): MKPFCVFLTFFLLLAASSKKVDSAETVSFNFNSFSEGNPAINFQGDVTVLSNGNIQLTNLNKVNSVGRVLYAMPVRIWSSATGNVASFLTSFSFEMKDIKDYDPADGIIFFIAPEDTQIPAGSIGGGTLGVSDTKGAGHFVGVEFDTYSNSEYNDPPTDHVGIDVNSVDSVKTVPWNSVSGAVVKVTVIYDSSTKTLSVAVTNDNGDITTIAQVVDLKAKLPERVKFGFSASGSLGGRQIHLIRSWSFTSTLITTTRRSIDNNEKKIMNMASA
Description: Lectin assay of dendrimers on magnetic beads, PNA. In kind it is binding. As to conditions: dendrimers coupled to streptavidin magnetic beads; lectin at 2 μg/mL pre-complexed with Avidin-HRP. How it is done:
as §1

Experiment [3] concerns the target anti-H3 antibody. The experiment is described as follows: Dissociation constant of monomer H3:anti-H3 antibody interaction. In kind it is binding.
In experiment [4] the test system is O13 YSD cells (yeast cells expressing the lamprey O13 VLRB anti-H3 antibody on their surface). In kind it is binding. How it is done: The O13 YSD cells were then washed 3 times with ice-cold TSM-BSA, then resuspended in 250 μL TMS-BSA to which 1 μL of PI was added to stain live/dead cells. 125 μL of each sample were used for flow cytometry measurements.
The target in experiment [5] is T2, Peanut agglutinin lectin (PNA), biotinylated, Vector Laboratories (Peanut, UniProt P02872 24-259, limits assumed, biotinylated (sites not given)).
T2 construct: Lectin, described as specific for galactose as found in T-antigen; It was pre-complexed with Avidin-HRP for the assay
T2 sequence (looked up): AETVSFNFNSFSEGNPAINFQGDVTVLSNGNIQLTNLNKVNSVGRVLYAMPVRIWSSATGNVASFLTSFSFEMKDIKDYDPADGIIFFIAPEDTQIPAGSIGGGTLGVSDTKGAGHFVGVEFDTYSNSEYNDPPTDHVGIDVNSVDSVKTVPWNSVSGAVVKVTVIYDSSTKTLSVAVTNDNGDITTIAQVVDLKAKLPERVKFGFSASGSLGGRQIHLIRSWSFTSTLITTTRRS
The experiment is described as follows: lectin assay: dendrimer on streptavidin magnetic beads, biotinylated lectin pre-complexed with Avidin-HRP, TMB read-out.

Where no end group is shown, it is not given here. The star is where a group is joined. αGalNAc = CC(=O)N[C@@H]1[C@@H](O)[C@@H](O)[C@@H](CO)O[C@@H]1*; GalNAcα = O-linked α-N-acetylgalactosamine

As for “GP100120-dendrimers: Synthetic fibroin glycopeptide GP100120 (GAT*ES*RGAGAGA-NH2, GalNAc on Ser and Thr, SEQ ID NO:5) conjugated to 8-arm-PEG-NHS compound (GAT(αGalNAc)ES(αGalNAc)RGAGAGA-NH2; also: conjugated to 8-arm-PEG-NHS (dendrimer), site not given here)”, the “reactivity to VVL lectin” value in experiment [1] is listed as “positive”. For the same molecule, in experiment [2], the “reactivity to PNA lectin” value was “negative”.

The term Kd denotes the concentration at which binding is half-saturated. Higher therefore signals lower affinity. Regarding `CC(=O)N[C@H]1C(O)O[C@H](CO)[C@@H](O[C@@H]2O[C@H](CO)[C@H](O)[C@H](O)[C@H]2O[C@@H]2O[C@@H](C)[C@@H](O)[C@@H](O)[C@@H]2O)[C@@H]1O` (stereo partly drawn) [monomer H3, Blood group H type 2 trisaccharide], in experiment [3], binding was put at a Kd of 2000 nM. The “koff of monomer H3:anti-H3 antibody complex” value in experiment [3] (from Kd=koff/kon with kon 10^6 M^−1 s^−1) is 2 s⁻¹. In experiment [4], the “binding by O13 YSD cells (flow cytometry)” value was “not detected”.

B1: GP100120-dendrimer: synthetic fibroin glycopeptide GP100120 (GAT*ES*RGAGAGA-NH2) conjugated to 8-arm-PEG-NHS (7 arms NHS, 1 arm biotin) (peptide)
peptide: GAT(GalNAcα)ESRGAGAGA-NH2
modifications: not fully specified (residue 5); printed as GAT*ES*RGAGAGA-NH2; also: coupled through a primary amine to NHS arm of 8-arm PEG (7 NHS arms, 1 biotin arm), multivalent, copy number not given here
notes: The dendrimer was captured on streptavidin magnetic beads by its biotin; also called GP100121 glycopeptide dendrimer; GP100121 dendrimer
On to B1, for which the binding result in experiment [5] was “no binding (tested: 2 µg/mL)”.
